The results in this text go back to PubChem BioAssay (NCI).

Test systems include A549 NSCLC; DU-145 prostate; HCT-116 colon; NCI-H226 lung; NCI/ADR-RES ovarian; SF-539 CNS; SK-OV-3 ovarian; TK-10 renal; U251 CNS; UACC-62 melanoma.
What all share (assay): growth of human tumour cells (NCI), 48 h

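All cell lines were grown in 96-well plates and treated with compound for 48 hours. At the TGI there is no net growth.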 Some results are limits rather than exact numbers.

As for `O=c1[nH]c(=O)n(COCc2ccccc2)c2ccc(Br)cc12`, the TGI with A549 NSCLC, with DU-145 prostate, with HCT-116 colon, in the assay on NCI-H226 lung, in the assay with NCI/ADR-RES ovarian and in the assay on SF-539 CNS was above 100 µM in each case. The TGI with SK-OV-3 ovarian, with TK-10 renal, in the assay with U251 CNS and in the assay on UACC-62 melanoma was above 100 µM in each case.
Regarding `C=C(CC(=O)Nc1ccc(C(=O)OC)o1)C(=O)OC`, the TGI in the assay on A549 NSCLC is 35.8 µM; in the assay on DU-145 prostate it was above 100 µM; in the assay with HCT-116 colon, 76.7 µM; with NCI-H226 lung, 66.8 µM; in the assay on NCI/ADR-RES ovarian, above 100 µM; with SF-539 CNS, 36.1 µM. For the same compound, the TGI in the assay on SK-OV-3 ovarian is 86.3 µM; with TK-10 renal, 46.1 µM; in the assay on U251 CNS, above 100 µM; with UACC-62 melanoma, 72.4 µM.
For the compound `O=C1CCCC2=C1C(c1ccc3c(c1)OCO3)Nc1ccc3ccccc3c12` (stereo not given), the TGI in the assay with A549 NSCLC, with DU-145 prostate, in the assay on HCT-116 colon, with NCI-H226 lung, in the assay on NCI/ADR-RES ovarian and in the assay with SF-539 CNS was above 100 µM each time. The TGI in the assay with SK-OV-3 ovarian, in the assay with TK-10 renal, in the assay on U251 CNS and in the assay with UACC-62 melanoma was above 100 µM throughout.
In the case of `CCOP(=O)(OCC)/C(=C\N1C(=O)CC(=O)NC1=S)C(=O)OC`, the TGI in the assay on A549 NSCLC, in the assay with DU-145 prostate, in the assay with HCT-116 colon, in the assay on NCI-H226 lung, in the assay with NCI/ADR-RES ovarian and in the assay on SF-539 CNS was above 100 µM in each case. Besides, the TGI in the assay with SK-OV-3 ovarian, in the assay on TK-10 renal, in the assay on U251 CNS and in the assay on UACC-62 melanoma was above 100 µM each time.
For the compound `Cc1cc(Nc2ccc(N=Nc3ccc(O)c4ncccc34)cc2)nc(C)n1`, the TGI in the assay on A549 NSCLC turned out to be 38.3 µM; in the assay with DU-145 prostate, 69.7 µM; in the assay on HCT-116 colon, 44.6 µM; in the assay on NCI-H226 lung it was 44.1 µM; in the assay with NCI/ADR-RES ovarian it was 61 µM; in the assay with SF-539 CNS, 20.6 µM. Moreover, the TGI in the assay with SK-OV-3 ovarian was above 72.7 µM; in the assay on TK-10 renal, 50.2 µM; with U251 CNS it was 33.4 µM; in the assay on UACC-62 melanoma, 24.6 µM.
In the case of `COc1ccc(/C=C2\CC3C4CC=C5C[C@@H](O)CC[C@]5(C)C4CC[C@]3(C)\C2=N\O)cc1OC` (stereo not given in full), the TGI in the assay on A549 NSCLC, in the assay on DU-145 prostate, in the assay with HCT-116 colon, in the assay on NCI-H226 lung, in the assay with NCI/ADR-RES ovarian and in the assay with SF-539 CNS was above 100 µM throughout. In addition, the TGI was above 100 µM in the assay with SK-OV-3 ovarian, above 100 µM in the assay on TK-10 renal, above 100 µM in the assay on U251 CNS and 25.6 µM with UACC-62 melanoma.
In the case of `Cc1cc(NS(=O)(=O)c2ccc(NC(=O)c3cccc4c(NNc5ccc(S(=O)(=O)N=C(N)N)cc5)c5ccccc5nc34)cc2)no1`, the TGI was above 100 µM in the assay with A549 NSCLC; above 100 µM in the assay with DU-145 prostate; above 100 µM in the assay on HCT-116 colon; 98.5 µM with NCI-H226 lung; above 100 µM with NCI/ADR-RES ovarian; above 100 µM with SF-539 CNS. For the same compound, the TGI in the assay with SK-OV-3 ovarian is above 100 µM; with TK-10 renal, above 100 µM; in the assay on U251 CNS, 64.7 µM; in the assay with UACC-62 melanoma, above 100 µM.
Regarding `O=c1[nH]c(=O)n(COCc2ccccc2)c2ccc([N+](=O)[O-])cc12`, the TGI in the assay on A549 NSCLC, in the assay on DU-145 prostate, with HCT-116 colon, with NCI-H226 lung, in the assay on NCI/ADR-RES ovarian and in the assay with SF-539 CNS was above 100 µM throughout. In addition, the TGI in the assay on SK-OV-3 ovarian, with TK-10 renal, in the assay with U251 CNS and in the assay on UACC-62 melanoma was above 100 µM in each case.
`O=c1[nH]c2cc3cccnc3c(Cl)c2nc1C(F)(F)F`: the TGI with A549 NSCLC, with DU-145 prostate, in the assay with HCT-116 colon, in the assay on NCI-H226 lung, with NCI/ADR-RES ovarian and in the assay on SF-539 CNS was above 100 µM in each case. For the same compound, the TGI in the assay with SK-OV-3 ovarian, with TK-10 renal, in the assay on U251 CNS and with UACC-62 melanoma was above 100 µM throughout.
For the compound `O=c1[nH]c2ccccc2nc1/C=C(\O)C(F)F`, the TGI with A549 NSCLC, with DU-145 prostate, with HCT-116 colon, with NCI-H226 lung, in the assay with NCI/ADR-RES ovarian and in the assay with SF-539 CNS was above 100 µM throughout. Moreover, the TGI in the assay on SK-OV-3 ovarian, in the assay on TK-10 renal, in the assay with U251 CNS and in the assay with UACC-62 melanoma was above 100 µM throughout.
Take `COC(=O)/C=C\C(C#N)(C#N)N=Cc1ccc(C)s1`: the TGI in the assay with A549 NSCLC was found to be 33.6 µM; in the assay with DU-145 prostate, 9.11 µM; with HCT-116 colon, 2.65 µM; in the assay with NCI-H226 lung it was 31.4 µM; in the assay on NCI/ADR-RES ovarian it was 28.7 µM; in the assay on SF-539 CNS, 10.1 µM. The TGI in the assay with SK-OV-3 ovarian was found to be 28.2 µM; with TK-10 renal it was 3.8 µM; in the assay with U251 CNS it was 28.8 µM; with UACC-62 melanoma, 31 µM.
As for `c1cc(C[S+]2CCCC2)ccc1C[S+]1CCCC1`, the TGI in the assay with A549 NSCLC, in the assay with DU-145 prostate, in the assay with HCT-116 colon, in the assay with NCI-H226 lung, in the assay on NCI/ADR-RES ovarian and with SF-539 CNS was above 100 µM each time. In addition, the TGI in the assay on SK-OV-3 ovarian, in the assay with TK-10 renal, with U251 CNS and in the assay on UACC-62 melanoma was above 100 µM throughout.
Consider `O=C(NC1(C(=O)NNc2nnc(-c3ccccc3)c(-c3ccccc3)n2)C(c2ccccc2)C(c2ccccc2)=NN1c1ccccc1)c1ccccc1` (stereo not given), for which the TGI in the assay on A549 NSCLC, in the assay with DU-145 prostate, with HCT-116 colon, with NCI-H226 lung, in the assay with NCI/ADR-RES ovarian and in the assay with SF-539 CNS was above 100 µM in each case. Moreover, the TGI with SK-OV-3 ovarian, with TK-10 renal, in the assay on U251 CNS and in the assay on UACC-62 melanoma was above 100 µM each time.
